In brackets after ≈: the same amount, converted by molar mass.
Columns and labels:
Nakaseomyces glabratus [1] = test: Synergistic antifungal activity against Candida glabrata ATCC 2001 assessed as voriconazole MIC measured after 48 hrs by checkboard based microplate reader analysis; type: functional
[2] = Cytotoxicity against mouse J774.A1 cells assessed as cell survival at 8 microg/ml by XTT assay; type: toxicity, cell-based; conditions: J774.A1 cells, at 8 µg/mL, read-out: Activity
Candida albicans [3] = test: Antifungal activity against Candida albicans ATCC 10231 measured after 48 hrs by broth microdilution analysis; type: functional
Candida albicans [4] = test: Synergistic antifungal activity against Candida albicans ATCC MYA-2876 assessed as voriconazole MIC measured after 48 hrs by checkboard based microplate reader analysis; type: functional
Candida albicans [5] = test: Synergistic antifungal activity against Candida albicans ATCC MYA-1237 assessed as voriconazole MIC measured after 48 hrs by checkboard based microplate reader analysis; type: functional
Candida albicans [6] = test: microbe, parasite or virus in culture; conditions: ATCC 10231, 48 h
Description: Synergistic antifungal activity against Candida albicans ATCC 10231 assessed as voriconazole MIC measured after 48 hrs by checkboard based microplate reader analysis

Candida albicans [7] = test: Antifungal activity against Candida albicans ATCC MYA-1237 measured after 48 hrs by broth microdilution analysis; type: functional
J774.A1 [8] = test: Cytotoxicity against mouse J774.A1 cells assessed as cell survival up to 4 microg/ml by XTT assay; type: toxicity, cell-based; conditions: dose < 4 µg/ml
Candida albicans [9] = test: Additive antifungal activity against Candida albicans ATCC MYA-1237 assessed as fractional inhibitory concentration index measured for 72 hrs in presence of voriconazole; type: functional
[10] = Cytotoxicity against HEK293 cells assessed as cell survival by XTT assay; type: toxicity, cell-based; conditions: human, read-out: Activity
HEK293 [11] = test: Cytotoxicity against HEK293 cells assessed as cell survival at 8 microg/ml by XTT assay; type: toxicity, cell-based; conditions: human, dose 8 µg/ml
BEAS-2B [12] = test: Cytotoxicity against human BEAS-2B cells assessed as cell survival up to 4 microg/ml by XTT assay; type: toxicity, cell-based; conditions: dose < 4 µg/ml
Candida albicans [13] = test: microbe, parasite or virus in culture; conditions: ATCC 90819, 48 h
Description: Synergistic antifungal activity against Candida albicans ATCC 90819 assessed as voriconazole MIC measured after 48 hrs by checkboard based microplate reader analysis

Candida albicans [14] = test: Synergistic antifungal activity against Candida albicans ATCC MYA-2310 assessed as voriconazole MIC measured after 48 hrs by checkboard based microplate reader analysis; type: functional
Candida albicans [15] = test: Antifungal activity against Candida albicans ATCC MYA-2876 measured after 48 hrs by broth microdilution analysis; type: functional
Candida albicans [16] = test: Antifungal activity against Candida albicans ATCC 64124 measured after 48 hrs by broth microdilution analysis; type: functional
Candida albicans [17] = test: Synergistic antifungal activity against Candida albicans ATCC MYA-1003 assessed as voriconazole MIC measured after 48 hrs by checkboard based microplate reader analysis; type: functional
Aspergillus terreus [18] = test: Antifungal activity against Aspergillus terreus ATCC MYA-3633 measured after 48 hrs by broth microdilution analysis; type: functional
[19] = Cytotoxicity against mouse J774.A1 cells assessed as cell survival by XTT assay; type: toxicity, cell-based; conditions: read-out: Activity
Nakaseomyces glabratus [20] = test: Antifungal activity against Candida glabrata ATCC 2001 measured after 48 hrs by broth microdilution analysis; type: functional
Candida albicans [21] = test: Antifungal activity against Candida albicans ATCC 90819 measured after 48 hrs by broth microdilution analysis; type: functional
BEAS-2B [22] = test: Cytotoxicity against human BEAS-2B cells assessed as cell survival at 4 to 16 microg/ml by XTT assay; type: toxicity, cell-based; conditions: dose 4-16 µg/ml
[23] = Cytotoxicity against human BEAS-2B cells assessed as cell survival by XTT assay; type: toxicity, cell-based; conditions: read-out: Activity
Candida albicans [24] = test: Antifungal activity against Candida albicans ATCC MYA-1003 measured after 48 hrs by broth microdilution analysis; type: functional
Candida albicans [25] = test: microbe, parasite or virus in culture; conditions: ATCC 64124, 48 h
Description: Synergistic antifungal activity against Candida albicans ATCC 64124 assessed as voriconazole MIC measured after 48 hrs by checkboard based microplate reader analysis

HEK293 [26] = test: Cytotoxicity against HEK293 cells assessed as cell survival at 4 to 16 microg/ml by XTT assay; type: toxicity, cell-based; conditions: human, dose 4-16 µg/ml
J774.A1 [27] = test: Cytotoxicity against mouse J774.A1 cells assessed as cell survival at 4 to 16 microg/ml by XTT assay; type: toxicity, cell-based; conditions: dose 4-16 µg/ml
Aspergillus terreus [28] = test: Synergistic antifungal activity against Aspergillus terreus ATCC MYA-3633 assessed as voriconazole MIC measured after 48 hrs by checkboard based microplate reader analysis; type: functional
HEK293 [29] = test: Cytotoxicity against HEK293 cells assessed as cell survival up to 4 microg/ml by XTT assay; type: toxicity, cell-based; conditions: human, dose < 4 µg/ml
Candida albicans [30] = test: Synergistic antifungal activity against Candida albicans ATCC 90819 assessed as posaconazole MIC measured after 48 hrs by checkboard based microplate reader analysis; type: functional
Nakaseomyces glabratus [31] = test: Synergistic antifungal activity against Candida glabrata ATCC 2001 assessed as posaconazole MIC measured after 48 hrs by checkboard based microplate reader analysis; type: functional
[32] = Cytotoxicity against HEK293 cells assessed as cell survival at 16 microg/ml by XTT assay; type: toxicity, cell-based; conditions: human, at 16 µg/mL, read-out: Activity
Candida albicans [33] = test: Synergistic antifungal activity against Candida albicans ATCC 64124 assessed as posaconazole MIC measured after 48 hrs by checkboard based microplate reader analysis; type: functional
Candida albicans [34] = test: Synergistic antifungal activity against Candida albicans ATCC 10231 assessed as posaconazole MIC measured after 48 hrs by checkboard based microplate reader analysis; type: functional
Candida albicans [35] = test: Synergistic antifungal activity against Candida albicans ATCC MYA-1237 assessed as posaconazole MIC measured after 48 hrs by checkboard based microplate reader analysis; type: functional
Candida albicans [36] = test: Synergistic antifungal activity against Candida albicans ATCC MYA-1003 assessed as posaconazole MIC measured after 48 hrs by checkboard based microplate reader analysis; type: functional
Candida albicans [37] = test: Additive antifungal activity against Candida albicans ATCC MYA-1237 assessed as fractional inhibitory concentration index measured for 72 hrs in presence of posaconazole; type: functional
Candida albicans [38] = test: Synergistic antifungal activity against Candida albicans ATCC MYA-2876 assessed as posaconazole MIC measured after 48 hrs by checkboard based microplate reader analysis; type: functional
[39] = Cytotoxicity against mouse J774.A1 cells assessed as cell survival at 16 microg/ml by XTT assay; type: toxicity, cell-based; conditions: at 16 µg/mL, read-out: Activity
Aspergillus terreus [40] = test: Synergistic antifungal activity against Aspergillus terreus ATCC MYA-3633 assessed as posaconazole MIC measured after 48 hrs by checkboard based microplate reader analysis; type: functional
Candida albicans [41] = test: Synergistic antifungal activity against Candida albicans ATCC MYA-2310 assessed as posaconazole MIC measured after 48 hrs by checkboard based microplate reader analysis; type: functional

Row | SMILES | viability at 8 microg/ml [2] [%] | MIC (Candida albicans [3]) [µg/mL] | MIC (Candida albicans [7]) [µg/mL] | Activity (J774.A1 [8]) | viability [10] [%] | Activity (HEK293 [11]) | Activity (BEAS-2B [12]) | MIC (Candida albicans [15]) [µg/mL] | MIC (Candida albicans [16]) [µg/mL] | MIC (Aspergillus terreus [18]) [µg/mL] | viability [19] [%] | MIC (Nakaseomyces glabratus [20]) [µg/mL] | MIC (Candida albicans [21]) [µg/mL] | viability [23] [%] | MIC (Candida albicans [24]) [µg/mL] | Activity (HEK293 [29]) | further results
1 | C[C@@H](c1ncncc1F)[C@](O)(Cn1cncn1)c1ccc(F)cc1F [VORICONAZOLE] | 100 | 1 (≈ 2.86 µM) | > 32 | Non-Toxic | > 100 | Non-Toxic | Non-Toxic | > 32 | > 32 | 0.25 (≈ 0.716 µM) | > 100 | > 32 | > 32 | > 100 | > 32 | Non-Toxic | MIC (Nakaseomyces glabratus [1]): > 32 µg/mL; MIC (Candida albicans [4]): > 32 µg/mL; MIC (Candida albicans [5]): > 32 µg/mL; MIC (Candida albicans [6]): 0.25 µg/mL (≈ 0.716 µM); fractional inhibitory concentration index (FICI) (Candida albicans [9]): 2; MIC (Candida albicans [13]): 0.25 µg/mL (≈ 0.716 µM); MIC (Candida albicans [14]): > 32 µg/mL; MIC (Candida albicans [17]): 2 µg/mL; Activity (BEAS-2B [22]): Non-Toxic; MIC (Candida albicans [25]): 4 µg/mL (≈ 11.5 µM); Activity (HEK293 [26]): Non-Toxic; Activity (J774.A1 [27]): Non-Toxic; MIC (Aspergillus terreus [28]): 0.5 µg/mL
2 | CC[C@@H]([C@H](C)O)n1ncn(-c2ccc(N3CCN(c4ccc(OC[C@@H]5CO[C@@](Cn6cncn6)(c6ccc(F)cc6F)C5)cc4)CC3)cc2)c1=O [POSACONAZOLE] | 80 | 1 (≈ 1.43 µM) | > 32 | Non-Toxic | > 100 | Non-Toxic | Non-Toxic | > 32 | > 32 | 0.25 (≈ 0.357 µM) | > 100 | > 32 | > 32 | > 100 | > 32 | Non-Toxic | MIC (Candida albicans [30]): 0.25 µg/mL; MIC (Nakaseomyces glabratus [31]): 0.25 µg/mL; viability at 16 microg/ml [32]: 45%; MIC (Candida albicans [33]): 2 µg/mL; MIC (Candida albicans [34]): 0.125 µg/mL; MIC (Candida albicans [35]): 0.5 µg/mL; MIC (Candida albicans [36]): 0.5 µg/mL; fractional inhibitory concentration index (FICI) (Candida albicans [37]): 2; MIC (Candida albicans [38]): > 32 µg/mL; viability at 16 microg/ml [39]: 46%; MIC (Aspergillus terreus [40]): 0.25 µg/mL; MIC (Candida albicans [41]): 0.5 µg/mL
